Experimental data as given in ChEMBL document CHEMBL1145719, “Rigidone, a sesquiterpene o-quinone from the gorgonian Pseudopterogorgia rigida” (J Nat Prod, 1997).

Target: T1, Macrophage scavenger receptor types I and II (Homo sapiens, UniProt P21757)
T1 sequence (P21757 whole entry): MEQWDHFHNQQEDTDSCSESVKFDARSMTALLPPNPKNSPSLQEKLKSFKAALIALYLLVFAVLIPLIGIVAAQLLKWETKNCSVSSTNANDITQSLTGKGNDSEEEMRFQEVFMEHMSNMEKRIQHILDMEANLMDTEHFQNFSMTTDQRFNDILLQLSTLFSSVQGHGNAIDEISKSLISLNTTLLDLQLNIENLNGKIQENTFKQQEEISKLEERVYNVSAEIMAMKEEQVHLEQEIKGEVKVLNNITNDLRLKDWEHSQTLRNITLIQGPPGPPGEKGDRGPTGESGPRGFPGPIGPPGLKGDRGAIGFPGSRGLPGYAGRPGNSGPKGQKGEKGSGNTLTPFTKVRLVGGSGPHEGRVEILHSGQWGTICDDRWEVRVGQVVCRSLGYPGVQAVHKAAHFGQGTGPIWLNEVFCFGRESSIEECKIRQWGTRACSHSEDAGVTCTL
Assay: Inhibition of full-length MSR1 transfected in HEK293 cells by fluorimetry
Format: cell-based

## CC(C)=CCC[C@H](C)c1c(O)c(O)c(C)c2nc3ccccc3nc12
  IC50: 71 µM

## CC(C)=CCC[C@H](C)C1=C(O)C=C(C)C(=O)C1=O [RIGIDONE]
  IC50: 5.6 µM
